Experimental data from patent US8741911B2, “Raf inhibitor compounds” (Eli Lilly and Company, priority 2012, dated 2014).
Where two headings read alike, the source gives them in different places.

Assays:
[1] = system: 786-0; assay: CellTiter-Glo proliferation and viability assay; type: cell-based; conditions: Homo sapiens
[2] = system: THP-1; assay: CellTiter-Glo proliferation and viability assay; type: cell-based; conditions: Homo sapiens
[3] = system: BT-474; assay: CellTiter-Glo proliferation and viability assay; type: cell-based; conditions: Homo sapiens
[4] = system: Sk-MeI-2 cells; assay: CellTiter-Blue SK-MeI-2 cell proliferation assay; type: cell-based; conditions: Homo sapiens; SK-Mel-2, CellTiter-Blue; read-out: Cell Proliferation Inhibition IC50
Procedure: Sk-MeI-2 cells (catalog #HTB-68) are obtained from the American Type Culture Collection (ATCC, Manassas, Va.). Briefly, cells are grown in MEM supplemented with 10% characterized fetal bovine serum (Invitrogen, Carlsbad, Calif.), 1 mM sodium pyruvate, 0.1 mM non-essential amino acids, and 1% Penicillin/Streptomycin/L-Glutamine at 37 degrees Celsius, 5% CO2, and 95% humidity. Cells are allowed to expand until reaching 70-95% confluency at which point they are subcultured or harvested for assay use. A serial dilution of test compound is dispensed into a 384-well black clear bottom plate in triplicate. One thousand two-hundred fifty cells are added per well in 50 μL complete growth medium in the 384-well plate. Plates are incubated for 67 hours at 37 degrees Celsius, 5% CO2, and 95% humidity. At the end of the incubation period, 10 μL of a 440 μM solution of resazurin (Sigma, St. Louis, Mo.) in PBS is added to each well of the plate and plates are incubated for an additional 5 hours at 37 degrees Celsius, 5% CO2, and 95% humidity. Plates are read on a Synergy2 reader (Biotek, Winooski, Vt.) using an excitation of 540 nm and an emission of 600 nm. Data is analyzed using Prism software (Graphpad, San Diego, Calif.) to calculate IC50 values.
The A375, HT-29, and Colo-205 cells (ATCC) harbor a V600E mutation.

[5] = system: U-266; assay: CellTiter-Glo proliferation and viability assay; type: cell-based; conditions: Homo sapiens, read-out: Abs IC50
[6] = system: SK-MeI-2 cells harboring N-Ras mutation Q61R, and B-Raf wild type; assay: CellTiter-Glo proliferation and viability assay; type: cell-based; conditions: Homo sapiens; SK-MeI-2, CellTiter-Glo; read-out: cell proliferation and viability IC50
[7] = biological target: C-Raf (WT) (Homo sapiens, UniProt P04049); assay: biochemical
[8] = system: MV-4-11; assay: CellTiter-Glo proliferation and viability assay; type: cell-based; conditions: Homo sapiens
[9] = system: Ba/F3 c-Kit T670I; assay: Ba/F3 c-Kit anti-proliferation assay; type: cell-based; conditions: Mus musculus, BaF3, Ba/F3 c-Kit T670I, read-out: Anti-proliferation activities (IC50)
Procedure: (§1) To further evaluate the test compound, it is tested against c-Kit mutations commonly occurring in melanoma and/or GIST. Ba/F3 cell line (from ATCC) are transfected with wild type (WT) c-Kit, c-Kit L576P (Willmore-Payne et al, Human Pathology, 2005, 36(5), 486; Willmore-Payne et al, Human Pathology, 2006, 37, 520), c-Kit K642E (Willmore et al, Am J Clin Pathol, 2004, 122(2), 206; Monsel et al, Oncogene, 2010, 29, 227), c-Kit T670I (Tamborini et al, Oncogene, 2006, 25, 6140), or c-Kit V654A (Tamborini et al, Oncogene, 2006, 25, 6140), respectively are established by retroviral transfection methods well known and used by those skilled in the art. The mutations are generated by polymerase chain reaction (PCR) mutagenesis and confirmed by automated sequencing of the PCR-amplified c-Kit expression construct. Ba/F3 stable cell lines are generated by transfecting with plasmid DNA. Expression of the appropriate c-Kit mutants is confirmed by Western blot analysis.
(§2) Wild type Ba/F3 cells are generally dependent on IL-3 for growth. After c-Kit transfection, these cells are grown in Ba/F3 ATCC recommended growth medium in the presence of stem cell factor (SCF), the ligand of c-Kit. The anti-proliferation activities of test compounds against these cells are tested in the presence of IL-3 or SCF.

[10] = system: Ba/F3 c-Kit L576P; assay: Ba/F3 c-Kit anti-proliferation assay; type: cell-based; conditions: Mus musculus, BaF3, Ba/F3 c-Kit L576P, read-out: Anti-proliferation activities (IC50)
Procedure: as §1, §2

[11] = system: NCI-H1573; assay: CellTiter-Glo proliferation and viability assay; type: cell-based; conditions: Homo sapiens
[12] = system: LOVO; assay: CellTiter-Glo proliferation and viability assay; type: cell-based; conditions: Homo sapiens
[13] = system: phospho-MEK and phospho-ERK in HCT-116 cells harboring B-Raf wild type and K-Ras mutation; assay: Immunoblotting (Western Blot) analysis, paradoxical pathway activation; type: cell-based, human
Procedure: Testing is carried out at doses of 0, and 11 serial dilutions ranging from 0.17 to 10000 nM. Protein lysates are generated by treatment of the cells with RIPA lysis buffer from Millipore. Western blotting analysis is performed substantially as described in Yadav et al, Molecular Carcinogenesis, 2011, 50: 346-52. Briefly, SDS-PAGE is performed on cell lysates containing 20 ug of total protein using 4-20% Novex® tri-glycine gradient gels (Invitrogen). Protein is transferred onto […] nitrocellulose membranes using NuPAGE® Transfer Buffer (Invitrogen) and 10% methanol at 100 V, 4° C. for 1 hr. Generally, the primary antibody is used at 1:1000 dilution, and secondary antibody at 1:20000 dilution. Proteins are detected using the Odyssey Infrared Imaging System (Li-COR Biosciences). Antibodies against ERK1/2, phospho-ERK1/2, phospho-MEK1/2, and actin are obtained from Cell Signaling Technology.
Testing is carried out at doses of 0, and 11 serial dilutions ranging from 0.17 to 10000 nM. The phospho-MEK and phospho-ERK activities were evaluated by Immunoblotting (Western Blot) analysis.

[14] = Solubility; type: physicochemical
[15] = system: COLO-829; assay: CellTiter-Glo proliferation and viability assay; type: cell-based; conditions: Homo sapiens
[16] = system: 22RV1; assay: CellTiter-Glo proliferation and viability assay; type: cell-based; conditions: Homo sapiens

C-Raf (WT), sequence (P04049 whole entry): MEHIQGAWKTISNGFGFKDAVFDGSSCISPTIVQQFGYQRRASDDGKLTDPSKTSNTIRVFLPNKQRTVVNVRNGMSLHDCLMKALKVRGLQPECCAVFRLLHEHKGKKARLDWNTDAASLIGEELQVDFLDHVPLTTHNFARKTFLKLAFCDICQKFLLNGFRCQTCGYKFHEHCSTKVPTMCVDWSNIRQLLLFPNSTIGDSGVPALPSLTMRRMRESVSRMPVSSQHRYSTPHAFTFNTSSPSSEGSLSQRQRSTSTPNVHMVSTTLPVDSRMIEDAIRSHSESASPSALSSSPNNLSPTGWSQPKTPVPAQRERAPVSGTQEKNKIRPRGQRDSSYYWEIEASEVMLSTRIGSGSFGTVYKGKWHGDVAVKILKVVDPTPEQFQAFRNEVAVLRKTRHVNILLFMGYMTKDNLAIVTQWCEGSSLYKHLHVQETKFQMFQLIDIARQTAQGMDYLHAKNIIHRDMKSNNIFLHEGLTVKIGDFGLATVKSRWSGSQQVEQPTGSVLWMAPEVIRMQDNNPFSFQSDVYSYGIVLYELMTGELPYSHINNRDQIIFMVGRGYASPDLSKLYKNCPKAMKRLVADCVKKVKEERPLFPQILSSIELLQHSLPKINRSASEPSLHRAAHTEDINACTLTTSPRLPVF

What does the source list for `CNc1ncc2cc(-c3cc(NC(=O)NCCC(C)(C)C)c(F)cc3C)c(C)nc2n1` [Example 1, 1-(3,3-Dimethylbutyl)-3-(2-fluoro-4-methyl-5-(7-methyl-2-(methylamino)pyrido[2,3-d]pyrimidin-6-yl)phenyl)urea]?
IC50 ([1]; read-out: Abs IC50): > 20 nM; IC50 ([1]; read-out: Rel IC50): 4.58 nM; IC50 ([2]; read-out: Abs IC50): 0.08 nM; IC50 ([2]; read-out: Rel IC50): 0.03 nM; IC50 ([3]; read-out: Abs IC50): 11.6 nM; IC50 ([3]; read-out: Rel IC50): 10.9 nM; IC50 [4]: 158 nM; IC50 [5]: 1.1 nM; IC50 [6]: 188 nM; inhibition at 0.001 µM [7]: -11%; inhibition at 0.01 µM [7]: 23.9%; inhibition at 0.1 µM [7]: 50.8%; inhibition at 1 µM [7]: 79.3%; IC50 ([8]; MV4-11, read-out: Abs IC50): 0.98 nM; IC50 ([8]; MV4-11, read-out: Rel IC50): 1.87 nM; IC50 ([9]; IL-3): 5920 nM; IC50 ([9]; SCF): 290 nM; IC50 ([10]; IL-3): 2080 nM; IC50 ([10]; SCF): 179 nM; IC50 ([11]; read-out: Abs IC50): > 20 nM; IC50 ([11]; read-out: Rel IC50): 0.99 nM; IC50 ([12]; read-out: Abs IC50): 0.19 nM; IC50 ([12]; read-out: Rel IC50): 0.12 nM; paradoxical pathway activation ([13]; HCT-116, B-Raf wild type and K-Ras mutation): minimal paradoxical pathway activation; doses that substantially eliminate phospho-ERK signal ([13]; HCT-116, Western Blot): above 41 nM; solubility [14]: poor; IC50 ([15]; read-out: Abs IC50): 0.05 nM; IC50 ([15]; read-out: Rel IC50): 0.04 nM; IC50 ([16]; read-out: Abs IC50): 1.96 nM; IC50 ([16]; read-out: Rel IC50): 0.19 nM
